Test [1] addresses T1, 17-beta-hydroxysteroid dehydrogenase type 1 (Homo sapiens) (UniProt P14061).
T1 sequence (whole entry): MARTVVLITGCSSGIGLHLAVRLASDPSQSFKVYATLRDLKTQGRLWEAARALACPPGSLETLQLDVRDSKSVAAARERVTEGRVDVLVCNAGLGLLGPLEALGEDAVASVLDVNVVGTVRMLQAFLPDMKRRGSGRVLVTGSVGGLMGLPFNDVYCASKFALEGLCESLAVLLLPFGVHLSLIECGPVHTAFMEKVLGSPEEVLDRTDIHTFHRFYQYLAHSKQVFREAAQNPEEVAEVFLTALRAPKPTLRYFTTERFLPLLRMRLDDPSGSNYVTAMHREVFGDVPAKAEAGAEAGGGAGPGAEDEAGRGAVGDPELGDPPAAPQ
Briefly: Inhibition of human 17beta-HSD1 expressed in HEK293 cells assessed as enzyme-mediated transformation of [14C]-E1 in to [14C]-E2 at 1 uM. The format is cell-based.

Test [2] has as its target T2, 17-beta-hydroxysteroid dehydrogenase type 3 (Homo sapiens) (UniProt P37058).
T2 sequence (whole entry): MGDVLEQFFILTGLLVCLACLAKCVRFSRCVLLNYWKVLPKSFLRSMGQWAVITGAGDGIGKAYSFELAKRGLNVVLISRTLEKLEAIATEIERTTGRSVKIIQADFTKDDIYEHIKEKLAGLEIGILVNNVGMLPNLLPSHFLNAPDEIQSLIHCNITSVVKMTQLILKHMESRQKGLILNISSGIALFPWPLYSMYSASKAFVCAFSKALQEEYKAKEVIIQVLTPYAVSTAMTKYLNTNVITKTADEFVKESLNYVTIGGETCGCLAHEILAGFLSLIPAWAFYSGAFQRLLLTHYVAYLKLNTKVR
Briefly: Inhibition of human 17beta-HSD3 expressed in HEK293 cells assessed as enzyme-mediated transformation of [14C]-4-androstene-3,17-dione in to [14C]-testosterone at 1 uM. The test is classed as cell-based.

Test [3] deals with T3, Androgen receptor (Rattus norvegicus) (UniProt P15207).
T3 sequence (whole entry): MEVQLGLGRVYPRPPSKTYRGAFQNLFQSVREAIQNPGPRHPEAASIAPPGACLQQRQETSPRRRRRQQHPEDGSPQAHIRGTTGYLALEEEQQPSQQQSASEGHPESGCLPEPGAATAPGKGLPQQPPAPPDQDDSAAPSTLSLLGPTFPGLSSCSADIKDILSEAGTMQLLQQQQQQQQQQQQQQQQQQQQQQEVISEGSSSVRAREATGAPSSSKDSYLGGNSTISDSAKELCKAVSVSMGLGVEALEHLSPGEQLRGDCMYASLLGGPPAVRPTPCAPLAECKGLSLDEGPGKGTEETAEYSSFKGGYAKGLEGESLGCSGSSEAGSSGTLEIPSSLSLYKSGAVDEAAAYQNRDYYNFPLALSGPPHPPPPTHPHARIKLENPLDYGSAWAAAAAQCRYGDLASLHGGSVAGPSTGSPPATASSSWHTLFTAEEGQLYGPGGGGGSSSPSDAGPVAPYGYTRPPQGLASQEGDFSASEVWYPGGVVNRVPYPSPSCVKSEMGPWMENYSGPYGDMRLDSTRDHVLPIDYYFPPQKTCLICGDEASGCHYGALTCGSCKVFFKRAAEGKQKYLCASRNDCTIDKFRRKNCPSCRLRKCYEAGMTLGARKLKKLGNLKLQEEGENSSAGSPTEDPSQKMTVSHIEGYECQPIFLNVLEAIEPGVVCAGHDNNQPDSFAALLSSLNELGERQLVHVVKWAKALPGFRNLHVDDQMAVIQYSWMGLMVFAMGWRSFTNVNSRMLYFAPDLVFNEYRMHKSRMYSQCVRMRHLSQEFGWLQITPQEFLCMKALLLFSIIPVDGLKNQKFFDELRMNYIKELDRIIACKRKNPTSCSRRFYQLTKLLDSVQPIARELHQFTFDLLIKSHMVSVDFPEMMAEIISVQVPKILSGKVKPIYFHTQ
The test can be described thus: Binding affinity to rat ventral prostate androgen receptor at 1 uM. The format is tissue-based. Particulars: Prostate gland.

Test [4] addresses T4, Progesterone receptor (Rattus norvegicus) (UniProt Q63449).
T4 sequence (whole entry): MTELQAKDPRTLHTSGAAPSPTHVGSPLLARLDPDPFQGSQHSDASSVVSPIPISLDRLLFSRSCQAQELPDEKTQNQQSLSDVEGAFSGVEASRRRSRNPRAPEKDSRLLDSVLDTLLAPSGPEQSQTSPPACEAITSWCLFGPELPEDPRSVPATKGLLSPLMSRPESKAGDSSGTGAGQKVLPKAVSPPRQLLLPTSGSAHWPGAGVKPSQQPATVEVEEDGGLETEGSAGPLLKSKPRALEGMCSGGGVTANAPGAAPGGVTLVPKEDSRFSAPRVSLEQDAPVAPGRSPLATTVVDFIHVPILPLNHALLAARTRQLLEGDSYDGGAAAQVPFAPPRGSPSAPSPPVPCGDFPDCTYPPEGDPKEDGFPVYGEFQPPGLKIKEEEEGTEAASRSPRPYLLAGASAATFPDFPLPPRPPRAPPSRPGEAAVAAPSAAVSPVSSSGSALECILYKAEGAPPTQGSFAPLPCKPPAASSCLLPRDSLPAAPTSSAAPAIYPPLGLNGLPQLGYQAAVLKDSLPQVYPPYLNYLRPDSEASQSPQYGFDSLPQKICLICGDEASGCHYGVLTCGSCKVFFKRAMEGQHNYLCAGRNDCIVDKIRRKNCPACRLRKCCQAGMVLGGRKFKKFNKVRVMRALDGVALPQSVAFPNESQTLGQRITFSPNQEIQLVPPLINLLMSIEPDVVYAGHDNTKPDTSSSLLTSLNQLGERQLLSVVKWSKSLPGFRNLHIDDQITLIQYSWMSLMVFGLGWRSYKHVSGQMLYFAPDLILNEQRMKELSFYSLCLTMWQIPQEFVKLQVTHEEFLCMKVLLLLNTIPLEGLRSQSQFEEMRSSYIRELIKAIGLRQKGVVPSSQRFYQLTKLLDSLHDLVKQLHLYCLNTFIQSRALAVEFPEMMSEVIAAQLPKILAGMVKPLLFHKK
The test can be described thus: Binding affinity to rat uterus progesterone receptor at 1 uM.

The target in test [5] is T4, Progesterone receptor (Rattus norvegicus). Briefly: Binding affinity to rat uterus progesterone receptor at 0.1 uM.
The target is the same in test [6]. Briefly: Binding affinity to rat uterus progesterone receptor at 10 uM.

On to `CC1(C)CC[C@@]2(CC[C@H]3[C@@H]4CCc5ccccc5[C@H]4CC[C@@]32C)OC1=O`, for which the figures for the inhibition in test [1] and in test [2] were 50% and 64%, respectively. In addition, the Activity in test [3] turned out to be 0%; in test [4], 5%.
Regarding `CC1(C)CC[C@@]2(CC[C@H]3[C@@H]4CCc5cc(O)ccc5[C@H]4CC[C@@]32C)OC1=O`, the figures for the Activity in test [5] and in test [6] were 11% and 35%, respectively.

As usually defined, the inhibition is the percentage by which the read-out fell short of the control.

Values taken from ChEMBL document CHEMBL1153852, “Steroidal lactones as inhibitors of 17beta-hydroxysteroid dehydrogenase type 5: chemical synthesis, enzyme inhibitory activity, and assessment of estrogenic and androgenic activities” (Eur J Med Chem, 2009).
